According to patent US8455399B2, “N-(4-perfluoroalkyl-phenyl)-4-triazolyl-benzamides as insecticides” (Syngenta Crop Protection LLC, priority 2009, dated 2013):

Key:
Assay type in all cases: in vivo
Spodoptera littoralis = Spodoptera littoralis (Egyptian cotton leafworm) leaf disc spray test; conditions: foliar, 72 h, 200 ppm sprayed on cotton leaf discs, 5 L1 larvae, mortality, feeding behavior, growth regulation 3 days after treatment
From the text: Spodoptera Littoralis (Egyptian Cotton Leafworm): Cotton leaf discs were placed on agar in a 24-well microtiter plate and sprayed with test solutions at an application rate of 200 ppm. After drying, the leaf discs were infested with 5 L1 larvae. The samples were checked for mortality, feeding behavior, and growth regulation 3 days after treatment (DAT).

Heliothis virescens = Heliothis virescens (tobacco budworm) egg/artificial diet test; conditions: 96 h, 200 ppm (concentration in well 18 ppm), eggs 0-24 h old on artificial diet, egg mortality, larval mortality, growth regulation after 4 days
Method: Heliothis Virescens (Tobacco Budworm): Eggs (0-24 h old) were placed in 24-well microtiter plate on artificial diet and treated with test solutions at an application rate of 200 ppm (concentration in well 18 ppm) by pipetting. After an incubation period of 4 days, samples were checked for egg mortality, larval mortality, and growth regulation.

Plutella xylostella = Plutella xylostella (diamond back moth) artificial diet test; conditions: 144 h, 200 ppm (concentration in well 18 ppm), L2 larvae, larval mortality and growth regulation after 6 days
Method: (§1) Plutella Xylostella (Diamond Back Moth): 24-well microtiter plate (MTP) with artificial diet was treated with test solutions at an application rate of 200 ppm (concentration in well 18 ppm) by pipetting. After drying, the MTP's were infested with L2 larvae (7-12 per well). After an incubation period of 6 days, samples were checked for larval mortality and growth regulation.

Diabrotica balteata = Diabrotica balteata (corn root worm) artificial diet test; conditions: 120 h, 200 ppm (concentration in well 18 ppm), L2 larvae, larval mortality and growth regulation after 5 days
Method: as §1, with “Diabrotica Balteata (Corn Root Worm): A” for “Plutella Xylostella (Diamond Back Moth):”, “(6-10” for “(7-12”, “5” for “6”

Thrips tabaci = Thrips tabaci (onion thrips) leaf disc spray test; conditions: foliar, 168 h, 200 ppm sprayed on sunflower leaf discs, population of mixed ages, mortality after 7 days
Method: Thrips Tabaci (Onion Thrips): Sunflower leaf discs were placed on agar in a 24-well microtiter plate and sprayed with test solutions at an application rate of 200 ppm. After drying, the leaf discs were infested with an […] population of mixed ages. After an incubation period of 7 days, samples were checked for mortality.

Tetranychus urticae = Tetranychus urticae (two-spotted spider mite) leaf disc spray test; conditions: foliar, 192 h, 200 ppm sprayed on bean leaf discs, mite populations of mixed ages, egg, larval and adult mortality 8 days later
From the text: Tetranychus Urticae (Two-Spotted Spider Mite): Bean leaf discs on agar in 24-well microtiter plates were sprayed with test solutions at an application rate of 200 ppm. After drying, the leaf discs are infested with mite populations of mixed ages. 8 days later, discs are checked for egg mortality, larval mortality, and adult mortality.

Measured: pest or weed control at 200 ppm

Cc1c(C(=O)Nc2cc(C(=O)Nc3c(Br)cc(C(F)(C(F)(F)F)C(F)(F)C(F)(F)F)cc3Br)ccc2-n2cncn2)cccc1[N+](=O)[O-] (stereo not drawn) [D10, 3-(2-Methyl-3-nitrobenzoylamino)-N-[2,6-dibromo-4-(1,2,2,3,3,3-hexafluoro-1-trifluoromethylpropyl)phenyl]-4-(1,2,4-triazol-1-yl)benzamide]
≥ 80%: all assays above
